Columns and labels:
MDA-MB-231 [1] = test: drug sensitivity score (DSS), CellTiter-Glo (DSS (AUC-based score)); higher = stronger drug effect (viability inhibition or cytotoxicity); extreme values may be limits of the assay; conditions: incubation time: 72 h
Outline: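 In 384-well plates, compound was laid out at 5 concentrations in 10-fold steps over a 10,000-fold range specific to each compound, and breast cancer cell lines were seeded on top in 20 µl suspension for a 72 h incubation. CellTox Green fluorescence and then CellTiter-Glo luminescence were read, and each plate was normalised to 0.1 % DMSO and a positive kill control. The drug sensitivity score was calculated from the area under the fitted dose-response curve.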

MDA-MB-231 [2] = conditions: 72 h
Outline: (§1)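 Each 384-well plate was pre-loaded with compound dissolved in 5 µl medium, received breast cancer cells in 20 µl suspension, and was incubated 72 h. A 2.5 µl addition of CellTiter-Blue for 2 h at 37 °C was followed by a fluorescence read at 560/590 nm. Data were normalised per plate to vehicle and a positive kill control and checked by Z'-factor. EC50 was fitted from the percent-inhibition dose-response curve, censored at the highest concentration, excluding rows with a drug sensitivity score of zero.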

HCC1143 [3] = conditions: 72 h
Outline: as §1

HCC1599 [4] = conditions: 72 h
Outline: as §1

CAL-120 [5] = conditions: 72 h
Outline: as §1

SK-BR-3 [6] = conditions: 72 h
Outline: as §1

MDA-MB-468 [7] = conditions: 72 h
Outline: as §1

MDA-MB-436 [8] = conditions: 72 h
Outline: as §1

BT-549 [9] = conditions: 72 h
Outline: as §1

HCC1937 [10] = conditions: 72 h
Outline: as §1

DU-4475 [11] = test: normalised viability (% of control), CellTiter-Blue; higher = more viable cells (about 100 = DMSO control); conditions: incubation time: 72 h
Procedure: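 DSRT, CellTiter-Blue viability, 72 h incubation. Signal is normalised to DMSO and benzethonium chloride controls. Value is the normalised response at dose 7.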

CAL-120 [12] = test: normalised response (% of control), CellTiter-Glo; higher = more viable cells (100 = DMSO, 0 = benzethonium chloride kill control); conditions: incubation time: 72 h
Outline: (§2)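 Breast cancer cell lines, seeded at 20 µl suspension per well, were incubated for 72 h in 384-well plates containing compound at 5 concentrations. These concentrations rose in 10-fold steps over a 10,000-fold range set for each compound. CellTox Green fluorescence (485/520 nm) was read, then CellTiter-Glo luminescence after 10 min at room temperature, and each plate was normalised to 0.1 % DMSO (100) and a positive kill control (0). Values are normalised signals, each at one concentration.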

BT-474 = test: as above; conditions: incubation time: 72 h
Outline: as §2

MDA-MB-231 [13] = test: as above; conditions: incubation time: 72 h
Outline: as §2

CAL-51 = test: as above; conditions: incubation time: 72 h
Outline: as §2

HCC1937 [14] = test: as above; conditions: incubation time: 72 h
Outline: as §2

Hs578T [15] = test: as above; conditions: incubation time: 72 h
Outline: as §2

MCF-10A = test: as above; conditions: incubation time: 72 h
Outline: as §2

SK-BR-3 [16] = test: as above; conditions: incubation time: 72 h
Outline: as §2

DU-4475 [17] = test: as above; conditions: incubation time: 72 h
Outline: as §2

CAL-85-1 = test: as above; conditions: incubation time: 72 h
Outline: as §2

MFM-223 [18] = test: as above; conditions: incubation time: 72 h
Outline: as §2

MDA-MB-453 = test: as above; conditions: incubation time: 72 h
Outline: as §2

HCC1143 [19] = test: as above; conditions: incubation time: 72 h
Outline: as §2

HCC1599 [20] = test: as above; conditions: incubation time: 72 h
Outline: as §2

MDA-MB-468 [21] = test: as above; conditions: incubation time: 72 h
Outline: as §2

MDA-MB-436 [22] = test: as above; conditions: incubation time: 72 h
Outline: as §2

CAL-148 = test: as above; conditions: incubation time: 72 h
Outline: as §2

HDQ-P1 = test: as above; conditions: incubation time: 72 h
Outline: as §2

BT-549 [23] = test: as above; conditions: incubation time: 72 h
Outline: as §2

Hs578T [24] = conditions: 72 h
Outline: as §1

MFM-223 [25] = conditions: 72 h
Outline: as §1

Compound	drug sensitivity score (MDA-MB-231 [1])	EC50, CellTiter-Blue viability (MDA-MB-231 [2]) [nM]	EC50, CellTiter-Blue viability (HCC1143 [3]) [nM]	EC50, CellTiter-Blue viability (HCC1599 [4]) [nM]	EC50, CellTiter-Blue viability (CAL-120 [5]) [nM]	EC50, CellTiter-Blue viability (SK-BR-3 [6]) [nM]	EC50, CellTiter-Blue viability (MDA-MB-468 [7]) [nM]	EC50, CellTiter-Blue viability (MDA-MB-436 [8]) [nM]	EC50, CellTiter-Blue viability (BT-549 [9]) [nM]	EC50, CellTiter-Blue viability (HCC1937 [10]) [nM]	normalised viability (DU-4475 [11]) [%]	normalised response (CAL-120 [12]) [%]	normalised response (BT-474) [%]	normalised response (MDA-MB-231 [13]) [%]	normalised response (CAL-51) [%]	normalised response (HCC1937 [14]) [%]	normalised response (Hs578T [15]) [%]	normalised response (MCF-10A) [%]	normalised response (SK-BR-3 [16]) [%]	normalised response (DU-4475 [17]) [%]	normalised response (CAL-85-1) [%]	normalised response (MFM-223 [18]) [%]	normalised response (MDA-MB-453) [%]	normalised response (HCC1143 [19]) [%]	normalised response (HCC1599 [20]) [%]	normalised response (MDA-MB-468 [21]) [%]	normalised response (MDA-MB-436 [22]) [%]	normalised response (CAL-148) [%]	normalised response (HDQ-P1) [%]	normalised response (BT-549 [23]) [%]	EC50, CellTiter-Blue viability (Hs578T [24]) [nM]	EC50, CellTiter-Blue viability (MFM-223 [25]) [nM]
Cn1cnc2c(F)c(Nc3ccc(Br)cc3F)c(C(=O)NOCCO)cc21 [MEK-162]	0	364	9.21	106	–	–	–	–	–	–	–	–	–	–	–	–	–	–	–	–	–	–	–	–	–	–	–	–	–	–	–	–
O=c1[nH]cc(F)c(=O)[nH]1 [Fluorouracil]	0	2880	–	2520	2530	532	> 10000	7520	1240	–	–	–	–	–	–	–	–	–	–	–	–	–	–	–	–	–	–	–	–	–	–	–
CN1CCN(c2ccc3nc(-c4c(N)c5c(F)cccc5[nH]c4=O)[nH]c3c2)CC1 [Dovitinib]	0	–	–	–	–	–	–	–	–	371	–	–	–	–	–	–	–	–	–	–	–	–	–	–	–	–	–	–	–	–	–	–
COc1cccc2c1C(=O)c1c(O)c3c(c(O)c1C2=O)C[C@@](O)(C(C)=O)C[C@@H]3O[C@H]1C[C@H](N)[C@H](O)[C@H](C)O1 [Daunorubicin] (100 nM)	–	–	–	–	–	–	–	–	–	–	41.7	93.1	82.5	88.7	46.2	98.2	92.6	103	91.9	86.9	97.5	115	139	95.8	103	54.9	77.9	64.8	91.8	68.9	–	–
CC(C)C[C@H](NC(=O)[C@H](Cc1ccccc1)NC(=O)c1cnccn1)B(O)O [Bortezomib] (100 nM)	–	–	–	–	–	–	–	–	–	–	2.48	10.4	1.56	0.34	1.1	59	0.6	68.6	4.21	13	1.51	3.48	29.7	10.9	56.6	0.63	2.39	22.6	3.18	1.75	–	–
CS(=O)(=O)OCCCCOS(C)(=O)=O [Busulfan]	0	–	–	–	–	–	–	–	–	77100	–	–	–	–	–	–	–	–	–	–	–	–	–	–	–	–	–	–	–	–	–	–
COC1=C2C[C@@H](C)C[C@H](OC)[C@H](O)[C@@H](C)/C=C(\C)[C@H](OC(N)=O)[C@@H](OC)/C=C\C=C(/C)C(=O)NC(=CC1=O)C2=O [Geldanamycin] (1000 nM)	–	–	–	–	–	–	–	–	–	–	0.05	102	101	97.9	96.2	89.8	103	99.7	87.1	91.4	92.7	40.4	96.6	102	99.6	104	64.4	106	97.2	81.2	–	–
CCS(=O)(=O)c1cccc(-c2cc(C(=O)NC3CCN(C)CC3)c(C)c3[nH]c4ncc(C)cc4c23)c1 [TAK-901]	7.63	110	225	110	94.4	–	442	214	126	142	–	–	–	–	–	–	–	–	–	–	–	–	–	–	–	–	–	–	–	–	125	56.6
C#Cc1cccc(Nc2ncnc3cc(OC)c(OCCCCCCC(=O)NO)cc23)c1 [CUDC-101] (1000 nM)	–	–	–	–	–	–	–	–	–	–	60.9	74.2	72.9	39.1	68.4	63.6	73.9	28.9	33.5	64.1	6.55	33.4	13.5	48.9	47.9	18.8	73.7	60.3	70	66.9	–	–
CN1CCN(c2ccc3nc(-c4c(N)c5c(F)cccc5[nH]c4=O)[nH]c3c2)CC1 [Dovitinib] (1000 nM)	–	–	–	–	–	–	–	–	–	–	94.7	92.1	95.1	101	115	94.7	101	97.2	97.2	101	117	95.4	92	99.1	106	93.7	101	94.9	102	95.5	–	–
